These results are taken from ChEMBL document CHEMBL1201862, “PubChem BioAssay data set” (2004).

Activity calls are given as the source filed them.

The nature of assay [1]: NIH-3T3 fibroblast cytotoxicity, dose response, cytotoxicity control, cell-based, fluorescence, Alamar Blue, secondary assay (AID 2327).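 Note: NIH-3T3 mouse fibroblasts cultured with fluconazole at 8 µg/mL.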 The assay is classed as functional. (The colour change of resazurin is a common sign of viable cells or microbes.)
The nature of assay [2]: fluconazole-exposed Candida albicans growth modulators – fluorescence, retest, confirmation (AID 2467). The assay is classed as functional, cell-based.
Assay [3] deals with Serine/threonine-protein phosphatase (Candida dubliniensis (strain CD36 / CBS 7987 / NCPF 3949 / NRRLY-17841) (Yeast), UniProt B9W6M3). Put plainly: blockers of CaCl2-induced CDRE-lacZ signaling – S. cerevisiae, luminescence, secondary, dose response (AID 2388).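 Note: yeast reporter cells carrying a calcineurin-responsive lacZ construct stimulated with calcium chloride; luminescent beta-galactosidase reporter signal in whole cells rather than isolated phosphatase activity; potency for inhibition where a drop in reporter signal means calcineurin blockade.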 The assay is classed as functional, cell-based.
For assay [4], the target named is ATP-dependent molecular chaperone HSP82 (Candida albicans (strain WO-1) (Yeast), UniProt C4YTQ8). The experiment in a line: steroid-induced GRE reporter decrease in yeast – S. cerevisiae, luminescence, Hsp90 inhibitor project, dose response (AID 2400).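 Note: beta-galactosidase luminescence from glucocorticoid response element reporter as proxy for Hsp90 function; inhibitor potency where signal loss means Hsp90 inhibition.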 The assay is classed as functional, cell-based.
Assay [5] addresses T1, Sentrin-specific protease 8 (Homo sapiens, UniProt Q96LD8).
T1 sequence (Q96LD8 whole entry): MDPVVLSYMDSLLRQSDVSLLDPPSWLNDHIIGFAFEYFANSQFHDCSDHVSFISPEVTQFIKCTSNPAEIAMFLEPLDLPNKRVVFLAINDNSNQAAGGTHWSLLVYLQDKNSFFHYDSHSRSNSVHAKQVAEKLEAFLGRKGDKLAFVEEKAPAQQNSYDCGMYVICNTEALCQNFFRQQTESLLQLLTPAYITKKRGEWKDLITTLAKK
Put plainly: inhibition of human SENP8 cleavage activity – biochemical, luminescence, SAR follow-up (AID 504501). The assay is classed as functional.

Assay [6] has as its target T2, Caspase-3 (Homo sapiens, UniProt P42574).
T2 sequence (P42574 whole entry): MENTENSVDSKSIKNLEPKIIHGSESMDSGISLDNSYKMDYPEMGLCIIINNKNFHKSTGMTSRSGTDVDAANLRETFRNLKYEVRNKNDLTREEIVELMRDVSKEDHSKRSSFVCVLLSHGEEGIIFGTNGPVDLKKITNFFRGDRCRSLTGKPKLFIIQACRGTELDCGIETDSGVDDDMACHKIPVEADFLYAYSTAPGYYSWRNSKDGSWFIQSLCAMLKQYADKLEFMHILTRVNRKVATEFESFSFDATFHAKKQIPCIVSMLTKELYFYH
Put plainly: inhibition of recombinant caspase-3 activity – biochemical, luminescence, set 2, selectivity assay for SENP protease inhibitor project, SAR follow-up (AID 588599). It is filed as functional.

Assay [7] deals with T1, Sentrin-specific protease 8. Put plainly: inhibition of sentrin protease 8 – biochemical, luminescence, set 2, SAR follow-up (AID 588601). The assay is classed as functional.
Assay [8] concerns the target T2, Caspase-3. The experiment in a line: SAR Analysis of small molecule inhibitors of Sentrin-specific proteases (SENPs) using a Caspase-3 Selectivity assay. [Related pubchem assays (depositor defined):AID2540, AID2599, AID434973, AID489001]. It is filed as functional.
In assay [9] the target is T3, Sentrin-specific protease 7 (Homo sapiens, UniProt Q9BQF6).
T3 sequence (Q9BQF6 whole entry): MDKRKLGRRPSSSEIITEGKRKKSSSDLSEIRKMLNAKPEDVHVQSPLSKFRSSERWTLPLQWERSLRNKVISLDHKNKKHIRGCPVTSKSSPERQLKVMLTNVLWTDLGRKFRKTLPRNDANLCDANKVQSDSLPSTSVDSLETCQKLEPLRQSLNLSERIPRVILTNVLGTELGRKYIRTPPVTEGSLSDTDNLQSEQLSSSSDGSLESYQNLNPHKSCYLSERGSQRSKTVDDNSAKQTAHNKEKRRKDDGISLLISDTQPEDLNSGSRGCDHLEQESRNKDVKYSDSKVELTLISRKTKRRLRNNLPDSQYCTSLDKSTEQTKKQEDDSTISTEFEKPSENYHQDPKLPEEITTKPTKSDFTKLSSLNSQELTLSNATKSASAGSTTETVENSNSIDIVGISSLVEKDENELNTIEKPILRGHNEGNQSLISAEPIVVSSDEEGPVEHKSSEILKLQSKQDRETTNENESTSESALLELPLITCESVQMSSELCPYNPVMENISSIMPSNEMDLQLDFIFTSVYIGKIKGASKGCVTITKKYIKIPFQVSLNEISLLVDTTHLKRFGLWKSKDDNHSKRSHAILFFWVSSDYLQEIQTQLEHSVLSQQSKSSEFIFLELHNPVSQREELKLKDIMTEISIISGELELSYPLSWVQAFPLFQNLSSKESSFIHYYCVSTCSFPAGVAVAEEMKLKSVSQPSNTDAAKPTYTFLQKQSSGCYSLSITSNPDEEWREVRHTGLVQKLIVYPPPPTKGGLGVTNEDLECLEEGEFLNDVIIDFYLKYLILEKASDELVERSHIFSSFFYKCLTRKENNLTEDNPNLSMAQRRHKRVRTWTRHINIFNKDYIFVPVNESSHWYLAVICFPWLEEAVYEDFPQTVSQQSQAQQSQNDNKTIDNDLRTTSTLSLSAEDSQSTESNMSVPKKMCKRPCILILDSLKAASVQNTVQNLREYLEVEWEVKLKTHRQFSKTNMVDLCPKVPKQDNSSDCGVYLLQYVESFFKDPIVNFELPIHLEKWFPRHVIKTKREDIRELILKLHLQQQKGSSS
Put plainly: inhibition of human SENP7 cleavage activity – biochemical, luminescence, set 2, SAR follow-up (AID 588600). It is filed as functional.

Assay [10] deals with T4, Sentrin-specific protease 6 (Homo sapiens, UniProt Q9GZR1).
T4 sequence (Q9GZR1 whole entry): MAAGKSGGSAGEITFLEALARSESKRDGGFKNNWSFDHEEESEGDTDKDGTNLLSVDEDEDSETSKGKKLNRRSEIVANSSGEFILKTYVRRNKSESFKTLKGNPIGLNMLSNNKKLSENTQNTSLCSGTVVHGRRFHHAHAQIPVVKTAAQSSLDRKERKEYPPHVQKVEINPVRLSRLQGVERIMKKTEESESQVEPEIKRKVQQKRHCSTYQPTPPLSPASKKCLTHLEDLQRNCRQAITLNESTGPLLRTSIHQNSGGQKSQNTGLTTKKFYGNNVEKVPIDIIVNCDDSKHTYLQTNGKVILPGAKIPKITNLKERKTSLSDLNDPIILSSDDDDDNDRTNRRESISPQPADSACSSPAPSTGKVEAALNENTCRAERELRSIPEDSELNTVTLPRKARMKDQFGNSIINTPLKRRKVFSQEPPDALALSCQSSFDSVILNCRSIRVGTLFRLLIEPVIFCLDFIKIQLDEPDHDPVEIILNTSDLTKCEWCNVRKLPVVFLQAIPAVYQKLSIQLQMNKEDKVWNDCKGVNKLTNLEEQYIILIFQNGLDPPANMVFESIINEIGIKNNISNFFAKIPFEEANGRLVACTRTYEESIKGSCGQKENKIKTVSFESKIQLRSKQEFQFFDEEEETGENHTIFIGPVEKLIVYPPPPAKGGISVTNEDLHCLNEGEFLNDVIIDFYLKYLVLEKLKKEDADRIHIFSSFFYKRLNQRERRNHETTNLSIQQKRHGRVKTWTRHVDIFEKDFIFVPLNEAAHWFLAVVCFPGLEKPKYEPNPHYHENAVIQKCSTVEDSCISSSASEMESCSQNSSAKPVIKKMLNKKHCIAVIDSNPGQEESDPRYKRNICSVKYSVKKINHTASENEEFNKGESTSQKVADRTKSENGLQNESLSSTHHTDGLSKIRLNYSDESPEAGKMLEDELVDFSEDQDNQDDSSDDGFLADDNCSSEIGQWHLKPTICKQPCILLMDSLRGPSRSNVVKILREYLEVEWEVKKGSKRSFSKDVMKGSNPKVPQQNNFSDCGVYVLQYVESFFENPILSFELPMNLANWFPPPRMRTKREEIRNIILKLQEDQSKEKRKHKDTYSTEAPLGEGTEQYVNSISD
Put plainly: SAR Analysis of small molecule inhibitors of Sentrin-specific protease 6 (SENP6) using a Luminescent assay. [Related pubchem assays (depositor defined):AID2582, AID2599]. The assay is classed as functional.

Assay [11] concerns the target T4, Sentrin-specific protease 6. Put plainly: inhibition of human SENP6 catalytic domain – biochemical, luminescence, set 2, SAR follow-up (AID 588598). The assay is classed as functional.
Assay [12] addresses T3, Sentrin-specific protease 7. Put plainly: inhibition of human SENP7 cleavage activity – biochemical, luminescence, SAR follow-up (AID 504497). It is filed as functional.
Assay [13] has as its system HEK293. The experiment in a line: cells. It is filed as functional, cell-based. Particulars: Homo sapiens.
Assay [14] concerns the target T5, Nuclear receptor subfamily 0 group B member 1 (Homo sapiens, UniProt P51843).
T5 sequence (P51843 whole entry): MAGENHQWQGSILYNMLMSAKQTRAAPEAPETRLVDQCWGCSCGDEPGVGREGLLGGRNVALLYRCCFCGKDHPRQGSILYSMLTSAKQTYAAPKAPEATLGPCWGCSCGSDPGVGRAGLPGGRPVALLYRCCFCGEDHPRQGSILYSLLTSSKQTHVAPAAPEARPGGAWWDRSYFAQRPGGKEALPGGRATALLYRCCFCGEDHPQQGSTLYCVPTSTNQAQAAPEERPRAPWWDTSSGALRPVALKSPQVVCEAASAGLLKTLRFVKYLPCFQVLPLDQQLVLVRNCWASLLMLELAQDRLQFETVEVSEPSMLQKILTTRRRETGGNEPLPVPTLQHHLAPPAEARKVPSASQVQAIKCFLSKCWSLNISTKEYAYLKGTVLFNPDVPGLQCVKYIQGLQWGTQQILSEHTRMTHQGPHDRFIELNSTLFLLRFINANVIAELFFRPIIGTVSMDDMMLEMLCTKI
Put plainly: Luminescence-based cell-based high throughput dose response assay for inhibitors of the orphan nuclear receptor subfamily 0, group B, member 1 (DAX1; NR0B1). [Related pubchem assays (depositor defined):AID504766, AID504790]. The assay is classed as functional.

Assay [15] deals with T6, Rac GTPase-activating protein 1 (Homo sapiens, UniProt Q9H0H5).
T6 sequence (Q9H0H5 whole entry): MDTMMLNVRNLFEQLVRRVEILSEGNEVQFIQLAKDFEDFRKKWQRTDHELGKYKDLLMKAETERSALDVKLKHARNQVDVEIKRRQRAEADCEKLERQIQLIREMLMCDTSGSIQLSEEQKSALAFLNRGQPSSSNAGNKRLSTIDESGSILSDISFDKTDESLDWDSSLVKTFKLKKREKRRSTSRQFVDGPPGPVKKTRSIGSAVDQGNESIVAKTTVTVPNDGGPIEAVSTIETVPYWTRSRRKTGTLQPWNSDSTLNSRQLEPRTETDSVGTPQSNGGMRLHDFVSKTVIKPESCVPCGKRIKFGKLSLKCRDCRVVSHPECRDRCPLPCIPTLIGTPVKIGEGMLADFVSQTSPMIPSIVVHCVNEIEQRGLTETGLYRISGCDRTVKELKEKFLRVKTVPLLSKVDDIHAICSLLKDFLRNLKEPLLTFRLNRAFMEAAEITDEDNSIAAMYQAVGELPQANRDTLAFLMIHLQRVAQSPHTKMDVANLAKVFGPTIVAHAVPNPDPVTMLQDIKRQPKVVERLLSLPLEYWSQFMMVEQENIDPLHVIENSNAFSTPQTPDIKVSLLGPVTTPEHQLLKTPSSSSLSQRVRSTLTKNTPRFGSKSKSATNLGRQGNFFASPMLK
The experiment in a line: blockers of MgcRacGAP-driven Rac1 GTP hydrolysis – biochemical, ADP Hunter fluorescence, primary and confirmatory, confirmation (AID 624330). It is filed as functional.

Chain of Serine/threonine-protein phosphatase (B9W6M3 whole entry): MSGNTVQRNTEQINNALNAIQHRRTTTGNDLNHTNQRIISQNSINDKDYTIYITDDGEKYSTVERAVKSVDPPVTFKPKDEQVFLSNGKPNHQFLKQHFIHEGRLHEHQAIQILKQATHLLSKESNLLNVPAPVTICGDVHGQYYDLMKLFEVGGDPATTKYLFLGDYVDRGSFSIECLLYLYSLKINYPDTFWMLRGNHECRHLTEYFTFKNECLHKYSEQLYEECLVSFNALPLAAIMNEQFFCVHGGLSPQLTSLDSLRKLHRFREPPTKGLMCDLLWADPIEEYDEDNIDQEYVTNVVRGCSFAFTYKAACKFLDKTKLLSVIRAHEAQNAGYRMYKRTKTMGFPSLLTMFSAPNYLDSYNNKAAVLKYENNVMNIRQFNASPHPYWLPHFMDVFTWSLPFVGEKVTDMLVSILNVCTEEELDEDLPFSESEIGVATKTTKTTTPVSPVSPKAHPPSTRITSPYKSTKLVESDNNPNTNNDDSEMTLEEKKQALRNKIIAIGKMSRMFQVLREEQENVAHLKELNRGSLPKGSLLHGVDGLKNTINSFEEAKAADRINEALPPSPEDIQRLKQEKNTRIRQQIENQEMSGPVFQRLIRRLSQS
Chain of ATP-dependent molecular chaperone HSP82 (C4YTQ8 whole entry): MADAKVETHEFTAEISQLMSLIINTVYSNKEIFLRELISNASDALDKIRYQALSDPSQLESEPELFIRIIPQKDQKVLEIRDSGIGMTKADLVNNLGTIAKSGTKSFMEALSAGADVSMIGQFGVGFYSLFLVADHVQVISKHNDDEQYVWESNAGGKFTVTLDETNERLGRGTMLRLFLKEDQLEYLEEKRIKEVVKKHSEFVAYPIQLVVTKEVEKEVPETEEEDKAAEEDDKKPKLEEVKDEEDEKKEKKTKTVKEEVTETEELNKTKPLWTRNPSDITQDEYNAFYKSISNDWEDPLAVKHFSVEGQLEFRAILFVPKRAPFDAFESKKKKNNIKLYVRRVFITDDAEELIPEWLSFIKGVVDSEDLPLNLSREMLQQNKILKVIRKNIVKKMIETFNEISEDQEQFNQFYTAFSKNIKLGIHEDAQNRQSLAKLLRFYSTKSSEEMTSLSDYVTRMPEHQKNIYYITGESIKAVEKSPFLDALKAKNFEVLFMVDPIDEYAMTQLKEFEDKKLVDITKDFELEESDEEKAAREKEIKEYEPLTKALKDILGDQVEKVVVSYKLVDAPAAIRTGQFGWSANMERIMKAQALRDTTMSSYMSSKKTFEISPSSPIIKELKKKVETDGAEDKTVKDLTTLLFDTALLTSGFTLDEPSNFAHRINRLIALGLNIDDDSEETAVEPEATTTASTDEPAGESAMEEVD

Usually EC50 stands for the concentration needed to bring the measured effect to its halfway point. As to `N#Cc1cc(C#N)c(N2CCN(c3cccc(Cl)n3)CC2)nc1N`, the EC50 in assay [1] is > 150 µM (inactive); in assay [2], 1.47 µM (active); in [3] it was > 180 µM (inactive); in assay [4] it was 23.7 µM (active).
Usually IC50 stands for the point on the concentration scale where inhibition reaches its midpoint. Take `O=C(Nc1nc2ccccc2s1)c1ccsc1`: the half-maximal inhibitory concentration (IC50) was 1.4 µM (active) in assay [5]; 10.4 µM (active) in [6]; 9.92 µM (active) in assay [7]; 1.1 µM (active) in assay [8]; 10.3 µM (active) in assay [9]; 1.4 µM (active) in assay [10]. Also, the IC50 in [11] was 10.6 µM (active); in assay [12] it was 1.1 µM (active).
With `COc1ccccc1-c1nnc(-c2ccc(C)cc2)o1`, the IC50 in assay [13] and in assay [14] was > 67.5 µM (inactive) each time.
Take `Cn1c(N2CCOCC2)c(/C=N/O)c2ccccc21`: the results for the IC50 in assay [13], in [14] and in [15] were > 67.5 µM (inactive), > 67.5 µM (inactive) and 74.5 µM (active), respectively.
